Reference: publication PMC10599030, “[1, 8]-Naphthyridine derivatives as dual inhibitor of alkaline phosphatase and carbonic anhydrase” (BMC Chemistry, 2023)
Values joined by “and” are separate entries in the source; they are usually repeats but may differ in a detail not shown here. Equal entries are not always repeated. Where two headings read alike, the source gives them in different places.

What was measured:
Assay type in all cases: biochemical
h-CAXII = target: T1, h-CAXII (Homo sapiens, UniProt O43570); test: Inhibition assay for carbonic anhydrase XII; settings: for IC50: n = 3, read-out: CAXII IC50 (µM) ± SEM
T1 construct: His (N); host or cells: HEK 293 T
Description: (§1) Expression of enzyme protein was done according to previously reported protocol. Briefly, transfection was carried out for CA-II, IX, and XII by using vectors pCMV3-N-His, pCMV3-SP-HIS-ORF, and pCMV3-N-His obtained from Sino Biologicals Inc., respectively. […] When cells gained about 80–90% confluency, they were washed twice with PBS and transfected with 0.2 µg plasmid solution. Cells were incubated for 6 h in 5% CO2 incubator, followed by the addition of fresh growth media. Cells were again incubated for 24 h. Hygromycin B (0.2 mg/mL) was used as a selection antibiotic for transfected cells. Cells were harvested after five days and lysed. Then desired proteins were purified via Ni–NTA resin using imidazole as affinity. SDS PAGE was carried out to confirm the molecular weight of purified protein.
(§2) The CA isozymes inhibition assay was performed according to the reported method after some modifications. Assay buffer was prepared that contained 50 mM tris-sulfate, 0.1 mM ZnCl2, and pH was adjusted at 7.6. Initially, 60 µL assay buffer was added in each well of 96 wells plate, 10 µL test compound (final concentration 100 µM), and followed by the addition of 10 µL working enzyme solution. The reaction mixture was incubated for 10 min at 37 °C. […] Then 20 µL of the substrate (6 mM) was added to the reaction mixture to initiate the reaction. The reaction mixture was incubated at 37 °C for 30 min, and absorbance was measured again. […] Results were reported as the mean of triplicate experiments (± SEM). The % inhibition was calculated by following the formula. Inhibition%=100-ODtestcompound/ODcontrol×100

h-CAII = target: T2, h-CAII (Homo sapiens, UniProt P00918); test: Inhibition assay for carbonic anhydrase II; settings: for IC50: n = 3, read-out: CAII IC50 (µM) ± SEM
T2 construct: His (N); host or cells: HEK 293 T
Description: as §1, §2

h-CAIX = target: T3, h-CAIX (Homo sapiens, UniProt Q16790); test: Inhibition assay for carbonic anhydrase IX; settings: for IC50: n = 3, read-out: CAIX IC50 (µM) ± SEM
T3 construct: His (N); host or cells: HEK 293 T
Description: as §1, §2

b-TNAP = target: T4, b-TNAP (Bos taurus, UniProt P09487); test: Alkaline phosphatase inhibition assay (b-TNAP, p-NPP substrate); settings: for IC50: n = 3, read-out: b-TNAP IC50 (µM) ± SEM; for inhibition at 100 µM: read-out: b-TNAP % Inhibition
T4 sequence (P09487 18-524): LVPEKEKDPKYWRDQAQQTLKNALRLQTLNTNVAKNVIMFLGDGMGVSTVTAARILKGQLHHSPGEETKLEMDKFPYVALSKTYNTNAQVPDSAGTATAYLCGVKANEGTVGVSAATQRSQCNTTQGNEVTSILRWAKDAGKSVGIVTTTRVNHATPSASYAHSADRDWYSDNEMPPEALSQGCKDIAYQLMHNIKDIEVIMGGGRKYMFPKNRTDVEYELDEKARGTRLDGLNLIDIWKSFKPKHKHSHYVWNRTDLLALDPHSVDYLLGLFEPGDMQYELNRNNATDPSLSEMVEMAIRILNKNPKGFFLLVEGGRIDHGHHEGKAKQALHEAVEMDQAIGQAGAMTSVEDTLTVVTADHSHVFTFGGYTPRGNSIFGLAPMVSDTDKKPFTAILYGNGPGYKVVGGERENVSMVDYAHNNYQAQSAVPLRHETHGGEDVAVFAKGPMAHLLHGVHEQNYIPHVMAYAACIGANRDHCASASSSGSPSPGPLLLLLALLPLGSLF
Description: The assay was based on previously reported protocol. […] All the solutions were made in assay buffer comprising Tris-HCl (50 mM), ZnCl2 (0.1 mM) and MgCl2 (5 mM) and pH was adjusted at 9.5. […] Assay was started by adding 70 μL of assay buffer in each well of 96 wells flat bottom clear microplate, followed by adding 10 μL of test compound and 10 μL of working enzyme solution. The reaction mixture was incubated at 37 °C for 10 min and absorbance was measured by a microplate reader (Bio-[…], Instruments, Inc. USA) at 405 nm. The reaction was started by adding 10 μL of 5 mM p-NPP (para-nitrophenolphosphate) as substrate. […] Following formula was used to calculate the percentage of inhibition of test compounds.

c-IAP = c-IAP (Bos taurus, UniProt P19111); test: Alkaline phosphatase inhibition assay (c-IAP, p-NPP substrate)
Description: [1, 8]-Naphthyridine derivatives were screened for inhibitor potential towards b-TNAP and c-IAP. The assay was based on previously reported protocol. […]. All the solutions were made in assay buffer comprising Tris–HCl (50 mM), ZnCl2 (0.1 mM) and MgCl2 (5 mM) and pH was adjusted at 9.5. Working solutions of both enzymes were prepared in assay buffer containing 50% of glycerol. The final concentration of b-TNAP and c-IAP were kept at 0.025 U/mL and 0.05 U/mL, respectively. Assay was started by adding 70 µL of assay buffer in each well of 96 wells flat bottom clear microplate, followed by adding 10 µL of test compound and 10 µL of working enzyme solution. The reaction mixture was incubated at 37 °C for 10 min and absorbance was measured by a microplate reader (Bio-TekELx 800™, Instruments, Inc. USA) at 405 nm. The reaction was started by adding 10 µL of 5 mM p-NPP (para-nitrophenolphosphate) as substrate. […]. Following formula was used to calculate the percentage of inhibition of test compounds. Inhibition%=100-ODtestcompound/ODcontrol×100

[1] = 100 µM final concentration of compound

T1 sequence (O43570 25-354): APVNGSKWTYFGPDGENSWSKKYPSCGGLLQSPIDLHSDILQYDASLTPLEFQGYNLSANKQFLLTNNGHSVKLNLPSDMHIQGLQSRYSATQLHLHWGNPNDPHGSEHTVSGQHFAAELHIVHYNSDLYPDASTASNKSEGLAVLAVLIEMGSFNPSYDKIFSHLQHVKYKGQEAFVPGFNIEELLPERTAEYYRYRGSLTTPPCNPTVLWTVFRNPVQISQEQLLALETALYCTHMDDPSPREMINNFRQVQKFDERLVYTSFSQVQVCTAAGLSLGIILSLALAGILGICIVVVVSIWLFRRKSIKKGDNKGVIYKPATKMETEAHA
c-IAP, sequence (P19111 20-506): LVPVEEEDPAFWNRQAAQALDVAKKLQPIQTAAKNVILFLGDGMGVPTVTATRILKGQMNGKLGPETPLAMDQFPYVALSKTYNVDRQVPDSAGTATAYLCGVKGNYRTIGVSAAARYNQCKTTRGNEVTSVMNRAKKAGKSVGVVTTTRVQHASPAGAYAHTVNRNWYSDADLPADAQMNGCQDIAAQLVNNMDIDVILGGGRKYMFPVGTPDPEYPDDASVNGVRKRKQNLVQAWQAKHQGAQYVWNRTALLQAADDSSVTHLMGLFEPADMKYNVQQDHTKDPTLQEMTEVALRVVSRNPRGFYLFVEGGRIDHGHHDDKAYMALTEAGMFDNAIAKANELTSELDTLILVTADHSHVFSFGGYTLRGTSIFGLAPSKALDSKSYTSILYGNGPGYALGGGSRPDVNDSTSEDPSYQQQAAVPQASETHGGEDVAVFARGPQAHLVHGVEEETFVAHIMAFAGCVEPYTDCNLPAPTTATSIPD

IC50 (h-CAXII)	IC50 (h-CAII)	IC50 (h-CAIX)	IC50 (b-TNAP)	SMILES	also measured
0.32 ± 0.07 µM	1.28 ± 0.16 µM	0.86 ± 0.47 µM	0.38 ± 0.09 µM	c1ccc(-c2cc3cccnc3n3cccc23)cc1 [Compound 1a]	–
1.51 ± 0.72 µM	1.26 ± 0.44 µM	–	0.122 µM and 0.12 µM	CC(C)(C)c1ccc(-c2cc3cccnc3n3cccc23)cc1 [Compound 1b]	Times more potent as compared to Levamisole (standard inhibitor of TNAP) (b-TNAP; ratio of IC50 values): 160 times
0.96 ± 0.28 µM	0.9 ± 0.5 µM	0.7 ± 0.27 µM	1.01 ± 0.31 µM	Fc1ccc(-c2cc3cccnc3n3cccc23)cc1 [Compound 1c]	–
0.51 ± 0.41 µM	0.44 ± 0.19 µM	1.61 ± 0.26 µM	0.32 ± 0.11 µM	CCCCc1cc2cccnc2n2cccc12 [Compound 1e]	–
4.3 ± 2.2 µM	–	0.99 ± 0.12 µM	0.14 ± 0.12 µM	COc1ccc(-c2cc3cccnc3n3cccc23)cc1 [Compound 1f]	–
3.05 ± 0.92 µM	0.1 ± 0.04 µM	0.11 ± 0.03 µM	0.63 ± 0.47 µM	COc1cccc(-c2cc3cccnc3n3cccc23)c1 [Compound 1g]	–
1.5 ± 0.31 µM	1.99 ± 0.71 µM	3.2 ± 1.52 µM	0.24 ± 0.06 µM	c1cnc2c(c1)cc(C1CCCCC1)c1cccn12 [Compound 1l]	–
–	–	–	19.21 ± 0.001 µM	c1ccc([C@H]2CN3CCSC3=N2)cc1 [Levamisole, reference compound]	–

Further lines, the molecule ahead of its results:

SMILES	IC50 (h-CAXII)	IC50 (h-CAII)	IC50 (h-CAIX)	IC50 (b-TNAP)	also measured
Cc1ccc(-c2cc3cccnc3n3cccc23)cc1 [Compound 1d]	2.4 ± 0.98 µM	–	1.36 ± 0.48 µM	–	Activity against CA-XII in words (h-CAXII): marked activity; Activity against CA-II in words (h-CAII): inactive; Activity against CA-IX in words (h-CAIX): marked activity; inhibition at 100 µM (b-TNAP): < 30%
COc1ccc(-c2cc3cccnc3n3cccc23)c(C)c1 [Compound 1h]	0.8 ± 0.69 µM	1.46 ± 0.96 µM	0.74 ± 0.51 µM	–	Activity against c-IAP in words (c-IAP): complete loss of activity; inhibition at 100 µM (c-IAP; read-out: c-IAP % Inhibition): 37%; Activity against b-TNAP in words (b-TNAP): loss of activity; inhibition at 100 µM (b-TNAP; [1]): 33%
Cc1cccc(-c2cc3cccnc3n3cccc23)c1 [Compound 1i]	0.46 ± 0.12 µM	–	0.87 ± 0.51 µM	–	Activity against CA-XII in words (h-CAXII): significant activity; Activity against CA-II in words (h-CAII): inactive; Activity against CA-IX in words (h-CAIX): significant activity; Activity against b-TNAP in words (b-TNAP): loss of activity; inhibition at 100 µM (b-TNAP): < 30%
Fc1ccccc1-c1cc2cccnc2n2cccc12 [Compound 1j]	0.51 ± 0.26 µM	2.14 ± 0.3 µM	1.65 ± 0.98 µM	–	Activity against b-TNAP in words (b-TNAP): loss of activity; inhibition at 100 µM (b-TNAP): < 20%
c1cnc2c(c1)cc(-c1ccsc1)c1cccn12 [Compound 1k]	1.8 ± 0.42 µM	1.63 ± 0.55 µM	–	0.36 ± 0.07 µM	CAIX % inhibition (h-CAIX; [1]): 35.1%; inhibition at 100 µM (h-CAIX; [1]): < 50%
N[C@@H](Cc1ccccc1)C(=O)O [L-phenyl alanine, reference compound]	–	–	–	–	IC50 (c-IAP; n = 3, read-out: c-IAP IC50 (µM) ± SEM): 80.21 ± 0.001 µM
